Test [1] addresses T1, HDAC2 (Homo sapiens, UniProt Q92769).
T1 construct: purchased from BPS Bioscience
In words: fluorogenic deacetylase assay, trypsin-coupled AMC release. The class given is biochemical.

For test [2], the target named is T2, HDAC3 (Homo sapiens, UniProt O15379).
T2 construct: purchased from BPS Bioscience; with Nuclear receptor corepressor 2
The test is described as above. The test is classed as biochemical.

Test [3] deals with HDAC4 (Homo sapiens, UniProt P56524). The test is described as above. The class given is biochemical.
Chain of HDAC4 (P56524 648-1057 limits assumed): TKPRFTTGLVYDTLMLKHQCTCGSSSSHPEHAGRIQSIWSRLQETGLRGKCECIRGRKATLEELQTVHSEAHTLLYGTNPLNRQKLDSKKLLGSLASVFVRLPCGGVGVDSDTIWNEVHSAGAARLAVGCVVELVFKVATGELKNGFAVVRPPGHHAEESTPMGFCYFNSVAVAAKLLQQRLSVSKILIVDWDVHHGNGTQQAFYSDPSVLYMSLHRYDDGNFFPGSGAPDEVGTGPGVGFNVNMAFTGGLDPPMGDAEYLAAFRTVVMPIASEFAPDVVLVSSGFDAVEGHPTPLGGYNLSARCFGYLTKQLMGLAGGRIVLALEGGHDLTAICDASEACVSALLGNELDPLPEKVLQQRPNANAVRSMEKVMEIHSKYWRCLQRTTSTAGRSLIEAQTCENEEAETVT
For test [4], the target named is T3, HDAC1 (Homo sapiens, UniProt Q13547).
T3 construct: purchased from BPS Bioscience
T3 sequence (Q13547 whole entry): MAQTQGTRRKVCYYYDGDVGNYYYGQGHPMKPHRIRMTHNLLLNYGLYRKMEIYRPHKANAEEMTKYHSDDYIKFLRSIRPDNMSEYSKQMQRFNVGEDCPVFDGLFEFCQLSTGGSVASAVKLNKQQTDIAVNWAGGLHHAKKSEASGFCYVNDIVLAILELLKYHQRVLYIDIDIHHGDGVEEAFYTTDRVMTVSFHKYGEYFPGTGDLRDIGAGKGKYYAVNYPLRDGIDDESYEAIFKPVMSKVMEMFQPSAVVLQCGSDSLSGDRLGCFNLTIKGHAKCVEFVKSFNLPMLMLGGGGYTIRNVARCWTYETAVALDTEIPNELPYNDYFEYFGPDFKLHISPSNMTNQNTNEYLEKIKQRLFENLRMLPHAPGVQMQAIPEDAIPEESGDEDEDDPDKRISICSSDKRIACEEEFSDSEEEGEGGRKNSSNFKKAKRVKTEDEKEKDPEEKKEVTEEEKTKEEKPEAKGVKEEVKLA
Described as above. The test is classed as biochemical.

Test [5] concerns the target T4, HDAC8 (Homo sapiens, UniProt Q9BY41).
T4 sequence (Q9BY41 1-377): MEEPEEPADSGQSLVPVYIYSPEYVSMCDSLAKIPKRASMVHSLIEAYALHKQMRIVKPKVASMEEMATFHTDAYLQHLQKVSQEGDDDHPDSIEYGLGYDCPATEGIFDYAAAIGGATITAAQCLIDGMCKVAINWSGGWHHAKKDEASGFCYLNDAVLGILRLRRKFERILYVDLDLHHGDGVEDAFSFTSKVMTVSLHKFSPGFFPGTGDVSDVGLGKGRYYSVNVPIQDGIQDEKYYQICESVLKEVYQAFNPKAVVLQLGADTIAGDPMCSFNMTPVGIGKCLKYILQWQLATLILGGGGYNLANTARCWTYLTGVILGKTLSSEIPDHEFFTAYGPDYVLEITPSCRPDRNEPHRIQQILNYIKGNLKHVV
In words: biochemical. Further details: in vitro inhibition of purified HDAC isozymes, dose response. As to the method: (§1) To confirm the ability of NKL54, MC2984 and MC2985 to act as epigenetic drugs, we examined the levels of histone H3 lysine 9 acetylation (H3K9ac) by immunoblot. SAHA triggered an increase in H3K9 acetylation within 15 min of treatment (Figure 1G). […] The increase in H3K9ac in response to MC2985 treatment was very small, almost undetectable. […] Overall, the modulation of H3K9ac and of H3K27ac levels in response to the different compounds confirms the inhibitory potency observed with the KDAC assay in vivo. Finally, we compared the in vitro inhibitory activity of SAHA and of PAOA derivatives against different purified HDACs (NKL54 was chosen as an example). The inhibitory activity of NKL54 was specific to HDAC1/2/3 (Figure 1H). […] The Tanimoto coefficient is reported for all the compounds versus the reference BML-210. *Energy calculated on the re-docked ligand extracted from the 3MU6 complex available from PDB. **Tanimoto similarity index calculated with radius 2 circular Morgan fingerprints ([73]) in a python script ([74]) using the RDKit library ([75]). […] Cell death was scored after 48 h from treatments. […] Cell death was scored after 48 h from treatments. Data are from 3 independent experiments, + S.D. (F) Lys-deacetylase activity as measured from SK-UT-1 cells treated with increasing concentrations of the indicated compounds [1, 5, 10 μM]. […]

In test [6] the target is T5, HDAC6 (Homo sapiens, UniProt Q9UBN7).
T5 sequence (Q9UBN7 1-1215): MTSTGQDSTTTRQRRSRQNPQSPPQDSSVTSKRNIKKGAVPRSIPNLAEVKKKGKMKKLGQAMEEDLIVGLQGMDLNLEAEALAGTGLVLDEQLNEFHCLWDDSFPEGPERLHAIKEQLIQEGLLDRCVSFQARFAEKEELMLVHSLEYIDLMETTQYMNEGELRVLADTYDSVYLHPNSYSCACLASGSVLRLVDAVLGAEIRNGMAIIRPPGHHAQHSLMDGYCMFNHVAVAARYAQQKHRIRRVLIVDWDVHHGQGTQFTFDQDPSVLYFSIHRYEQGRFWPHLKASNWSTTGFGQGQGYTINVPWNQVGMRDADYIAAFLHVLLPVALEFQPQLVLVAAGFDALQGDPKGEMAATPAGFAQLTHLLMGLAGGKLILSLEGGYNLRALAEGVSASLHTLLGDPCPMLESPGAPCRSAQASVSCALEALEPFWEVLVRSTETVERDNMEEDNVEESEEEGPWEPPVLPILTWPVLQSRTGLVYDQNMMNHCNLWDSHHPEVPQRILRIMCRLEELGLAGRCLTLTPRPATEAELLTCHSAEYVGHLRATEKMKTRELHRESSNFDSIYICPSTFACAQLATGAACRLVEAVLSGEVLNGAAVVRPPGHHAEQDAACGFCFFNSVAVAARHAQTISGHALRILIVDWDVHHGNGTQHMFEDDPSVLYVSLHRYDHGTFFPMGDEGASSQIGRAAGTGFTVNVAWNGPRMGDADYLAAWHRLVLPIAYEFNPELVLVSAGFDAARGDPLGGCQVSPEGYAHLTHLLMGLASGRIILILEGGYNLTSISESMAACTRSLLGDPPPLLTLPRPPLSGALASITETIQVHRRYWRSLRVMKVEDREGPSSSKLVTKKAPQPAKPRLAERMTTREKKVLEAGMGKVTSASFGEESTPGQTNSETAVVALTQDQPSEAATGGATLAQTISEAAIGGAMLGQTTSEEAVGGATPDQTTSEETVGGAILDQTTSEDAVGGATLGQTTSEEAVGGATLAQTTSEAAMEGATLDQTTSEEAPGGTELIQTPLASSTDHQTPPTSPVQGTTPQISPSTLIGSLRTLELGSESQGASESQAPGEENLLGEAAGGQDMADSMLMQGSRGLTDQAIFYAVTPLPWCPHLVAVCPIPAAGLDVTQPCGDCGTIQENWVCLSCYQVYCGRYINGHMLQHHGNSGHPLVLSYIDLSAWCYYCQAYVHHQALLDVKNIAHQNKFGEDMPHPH
Nature of the test: biochemical. Further details: in vitro inhibition of purified HDAC isozymes, dose response. The protocol:
as §1

T2 sequence (O15379 whole entry): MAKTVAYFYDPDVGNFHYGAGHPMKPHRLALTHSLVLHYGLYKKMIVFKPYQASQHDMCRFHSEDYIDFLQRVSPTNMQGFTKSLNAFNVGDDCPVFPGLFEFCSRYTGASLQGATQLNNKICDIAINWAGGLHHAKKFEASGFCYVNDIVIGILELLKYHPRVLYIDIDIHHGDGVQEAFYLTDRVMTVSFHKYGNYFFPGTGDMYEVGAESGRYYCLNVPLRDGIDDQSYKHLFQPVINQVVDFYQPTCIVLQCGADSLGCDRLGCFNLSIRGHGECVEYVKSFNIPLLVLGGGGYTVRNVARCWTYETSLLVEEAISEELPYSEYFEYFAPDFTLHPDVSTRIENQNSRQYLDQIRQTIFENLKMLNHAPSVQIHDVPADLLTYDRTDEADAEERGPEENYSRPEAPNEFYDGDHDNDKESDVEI
T1 sequence (Q92769 whole entry): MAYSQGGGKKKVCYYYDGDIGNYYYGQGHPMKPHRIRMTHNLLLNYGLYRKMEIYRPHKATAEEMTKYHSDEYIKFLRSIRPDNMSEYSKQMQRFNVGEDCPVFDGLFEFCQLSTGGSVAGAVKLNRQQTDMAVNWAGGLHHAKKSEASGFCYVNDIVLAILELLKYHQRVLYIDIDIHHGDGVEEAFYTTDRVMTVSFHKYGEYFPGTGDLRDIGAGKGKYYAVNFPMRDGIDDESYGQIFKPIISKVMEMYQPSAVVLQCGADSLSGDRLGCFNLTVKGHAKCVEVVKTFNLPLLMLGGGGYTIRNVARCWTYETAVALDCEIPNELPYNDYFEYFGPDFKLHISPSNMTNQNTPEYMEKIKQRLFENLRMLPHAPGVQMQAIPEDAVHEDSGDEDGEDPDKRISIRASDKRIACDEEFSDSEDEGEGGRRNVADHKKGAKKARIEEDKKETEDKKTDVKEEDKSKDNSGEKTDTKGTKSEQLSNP

A word on the IC50: it is the concentration that inhibits the measured activity by half. Consider `Nc1ccccc1NC(=O)CCCCCC(=O)Nc1cccc(C(F)(F)F)c1` [NKL54, N-(2-aminophenyl)-N'-[3-(trifluoromethyl)phenyl]heptanediamide], for which the IC50 in test [1] was 176 ± 5 nM; in test [2], 47 ± 2 nM; in test [3], 35000 nM; in test [4], 84 ± 4 nM; in test [5], over 50000 nM; in test [6], over 50000 nM.

The values above are taken from paper PMC8934631, “Transcriptomic and genomic studies classify NKL54 as a histone deacetylase inhibitor with indirect influence on MEF2-dependent transcription” (Nucleic Acids Research, 2022).
